Test results published in the NIST ThermoML archive (doi:10.1021/je030173e).

What was measured:
[1] = xn = mol fraction of the nth substance listed

COCCOC [1,2-dimethoxyethane]
Settings | surface tension liquid-gas [mN/m]
298.15 K | 23.79
308.15 K | 22.91
318.15 K | 21.89

COCCOC [1,2-dimethoxyethane] + O
surface tension liquid-gas [mN/m], [1]
Settings | x1 = 0.047 | x1 = 0.066 | x1 = 0.0759 | x1 = 0.1286 | x1 = 0.1942 | x1 = 0.2612 | x1 = 0.4132 | x1 = 0.6313 | x1 = 1
298.15 K | 48.35 | 42.42 | 40.62 | 31.96 | 28.55 | 27.81 | 26.08 | 25.41 | 23.79
308.15 K | 46.83 | 40.97 | 39.26 | 30.69 | 27.43 | 26.81 | 25.12 | 24.49 | 22.91
318.15 K | 46.47 | 40.62 | 37.71 | 29.26 | 26.53 | 25.92 | 24.78 | 23.6 | 21.89

COCCOCCO [2-(2-methoxyethoxy)ethanol]
Settings | surface tension liquid-gas [mN/m]
298.15 K | 34.73
308.15 K | 33.91
318.15 K | 32.95

COCCOCCO [2-(2-methoxyethoxy)ethanol] + O
surface tension liquid-gas [mN/m], [1]
Settings | 298.15 K | 308.15 K | 318.15 K
x1 = 0.0374 | 58.57 | 57.12 | 55.97
x1 = 0.0558 | 55.28 | 53.9 | 52.21
x1 = 0.1191 | 45.14 | 43.86 | 43.13
x1 = 0.1951 | 41.05 | 39.78 | 38.96
x1 = 0.3021 | 40.02 | 38.8 | 38.55
x1 = 0.4427 | 38.27 | 37.12 | 36.31
x1 = 0.491 | 37.57 | 36.46 | 35.26
x1 = 0.5502 | 36.87 | 35.92 | 34.53
x1 = 0.7494 | 35.37 | 34.49 | 33.45
x1 = 0.8564 | 35.02 | 34.18 | 33.12
x1 = 1 | 34.73 | 33.91 | 32.95

COCCOCCOCCO [2-[2-(2-methoxyethoxy)ethoxy]ethanol]
Settings | surface tension liquid-gas [mN/m]
298.15 K | 36.28
308.15 K | 35.79
318.15 K | 35.21

COCCOCCOCCO [2-[2-(2-methoxyethoxy)ethoxy]ethanol] + O
surface tension liquid-gas [mN/m], [1]
Settings | x1 = 0.0564 | x1 = 0.0964 | x1 = 0.1673 | x1 = 0.3525 | x1 = 0.474 | x1 = 0.5536 | x1 = 0.6606 | x1 = 0.7512 | x1 = 0.8736 | x1 = 1
298.15 K | 54.62 | 47.43 | 41.73 | 40.45 | 39.1 | 37.76 | 37.13 | 36.91 | 36.69 | 36.28
308.15 K | 53.11 | 45.98 | 40.46 | 39.45 | 38.29 | 37.04 | 36.49 | 36.35 | 36.18 | 35.79
318.15 K | 51.53 | 44.95 | 39.01 | 38.12 | 37.42 | 36.12 | 35.85 | 35.46 | 35.29 | 35.21

COCCO [2-methoxyethan-1-ol]
Settings | surface tension liquid-gas [mN/m]
298.15 K | 30.82
308.15 K | 30.02
318.15 K | 29.1

COCCO [2-methoxyethan-1-ol] + O
surface tension liquid-gas [mN/m], [1]
Settings | 298.15 K | 308.15 K | 318.15 K
x1 = 0.0509 | 56.33 | 55.17 | 53.9
x1 = 0.0559 | 55.11 | 54.04 | 52.82
x1 = 0.1052 | 46.86 | 45.88 | 44.8
x1 = 0.1494 | 43.31 | 42.37 | 41.35
x1 = 0.2215 | 39.7 | 38.81 | 37.83
x1 = 0.3373 | 36.75 | 35.89 | 34.92
x1 = 0.4783 | 35.02 | 34.18 | 33.22
x1 = 0.6258 | 32.91 | 32.02 | 31.13
x1 = 0.7814 | 31.78 | 30.96 | 30.02
x1 = 0.8912 | 31.02 | 30.21 | 29.28
x1 = 1 | 30.82 | 30.02 | 29.1

O [water]
Settings | surface tension liquid-gas [mN/m]
298.15 K | 71.99
308.15 K | 70.38
318.15 K | 68.82

O [water] + COCCO
[1], x2 = 0
Settings | surface tension liquid-gas [mN/m]
298.15 K | 71.99
308.15 K | 70.38
318.15 K | 68.82

O [water] + COCCOC
[1], x2 = 0
Settings | surface tension liquid-gas [mN/m]
298.15 K | 71.99
308.15 K | 70.38
318.15 K | 68.82

O [water] + COCCOCCO
[1], x2 = 0
Settings | surface tension liquid-gas [mN/m]
298.15 K | 71.99
308.15 K | 70.38
318.15 K | 68.82

O [water] + COCCOCCOCCO
[1], x2 = 0
Settings | surface tension liquid-gas [mN/m]
298.15 K | 71.99
308.15 K | 70.38
318.15 K | 68.82
